The values below come from PubChem BioAssay AID1902 (Broad Institute, 2009).

The source made the active and inactive calls.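 Rule for the calls: active = EC50 no more than a set limit of log units above the highest dose; inactive = the rest.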

This test addresses S. pyogenes SKKanGAS, kanamycin survival, BacTiterGlo, 6 h. Briefly: SKKanGAS survival reduction under kanamycin, dose response, streptokinase promoter inhibitor project, SKKanGAS strain, luminescence, dose confirmation (AID 1902).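 Note: lower survival reflects blocked streptokinase promoter driving kanamycin resistance gene.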
In the case of `CCOC(=O)N1CCN(C(=O)c2ccc3c(c2)NC(=O)/C(=C\c2ccc(OC)c(OC)c2)S3)CC1`, the EC50 is 1100 nM. For `CCCCNC(=O)c1ccc(NC(C)=O)c(Cl)c1`, the EC50 was > 15000 nM (inactive).

As for `Cc1ccc(C)c(NC(=O)CSc2nc3nc(-c4cccs4)cc(C(F)(F)F)c3c(=O)[nH]2)c1`, the EC50 was 3180 nM. With `COc1ccc2oc(C(=O)Nc3nc(-c4ccccn4)cs3)c(C)c2c1`, the EC50 was 1190 nM. The result for `N=C(N)c1ccc(/C=C/c2ccc(C(=N)N)cc2O)cc1` reads 3340 nM; that for `CC12CCC(C/C1=N\N=C1\NC(=O)/C(=C\c3cccc(Br)c3)S1)C2(C)C` (stereo not drawn), 638 nM; that for `CCOc1ccc(Nc2cc(C)nc(-n3nc(C)cc3C)n2)cc1`, 14000 nM. `CN(C)CCNC=C(C(=O)Nc1ccc(Cl)cc1Cl)C(=O)Nc1ccc(Cl)cc1Cl`: the EC50 was 3380 nM.

`COc1ccccc1CN1CN(S(=O)(=O)c2ccccc2)c2nc3ccccc3nc21`: the EC50 was 5130 nM. Turning to `c1ccc(C(NCCNC(c2ccccc2)c2ccccc2)c2ccccc2)cc1`, the EC50 is 1050 nM. Consider `CCCCc1nc(NCc2ccccc2)c(C#N)c2c1CCCC2`, for which the EC50 was 8220 nM. `C[C@@]12CCC=C[C@H]1[C@H](c1ccc3ccccc3c1Br)N(Cc1ccccc1)C2=O`: the EC50 was 3630 nM. The result for `CC(C)C1O/C(=N/C(=O)Nc2ccc(Cl)c(Cl)c2)NC1=O` (stereo not drawn) reads 2530 nM. Turning to `O=C(CSc1nnc(NC(=O)c2cccc(Cl)c2)s1)NCC1CCCO1` (stereo not drawn), the EC50 was > 15000 nM (inactive). In the case of `CCCCCn1c(=O)c(C(=O)Nc2cnccn2)c(O)c2ccccc21`, the EC50 is 3180 nM.

For the compound `Cc1ccc(Oc2ccc3c(c2)C(=O)N(c2ccc(S(=O)(=O)Nc4nccs4)cc2)C3=O)cc1`, the EC50 is 3060 nM. For the compound `Cn1nnnc1SCC(=O)Nc1nc(-c2ccccc2)c(-c2ccccc2)o1`, the EC50 was 7270 nM. `S=c1[nH]nc(-c2cc(-c3ccccc3)n[nH]2)n1/N=C/c1ccc(Br)s1`: the EC50 is 5220 nM.

`N#Cc1c(-c2ccccc2)nc(SCc2ccc(Cl)cc2)[nH]c1=O`: the EC50 is 6470 nM. In the case of `O=C(Nc1ncc(Cc2ccccc2)s1)c1cccs1`, the EC50 is 1900 nM. `COc1cccc(C(=O)Nc2nc(-c3ccccc3)c(-c3ccccc3)o2)c1`: the concentration giving a half-maximal response (EC50) was 881 nM. `Cc1cc(Br)cc(/C=N/NC(=O)c2ccc3c(c2)OCO3)c1O`: the EC50 is 1900 nM.

As for `N=C1SC(c2ccccc2)C(=O)N1c1ncc(Cc2ccccc2Cl)s1` (stereo not drawn), the EC50 was 177 nM. For the compound `CC(C)C1Nc2c(O)cc(Cl)c([N+](=O)[O-])c2C2C=CCC21` (stereo not drawn), the EC50 was 3100 nM. On to `CN1CC(c2ccc(Cl)c(Cl)c2)[C@@]2(COc3ccccc3C2=O)[C@@]12C(=O)Nc1ccccc12` (stereo partly drawn), for which the EC50 is 1430 nM. The result for `COc1cc2nc(=S)n3[nH]c(COc4ccccc4C)nc3c2cc1OC` reads 2280 nM; that for `CC(C)C(=O)NC(c1cccs1)c1cc([N+](=O)[O-])c2cccnc2c1O` (stereo not drawn), 1450 nM.

In the case of `O=C(CSc1nnc(CNC(=O)c2ccc(F)cc2)o1)NCc1ccccc1`, the EC50 is > 15000 nM (inactive). Take `COc1ccc(C(=O)CSc2[nH]c(=O)cc(C(F)(F)F)c2C#N)cc1`: the EC50 was 7060 nM. Regarding `O=c1[nH]c(CN2CC=C(c3ccccc3)CC2)nc2scc(-c3cccs3)c12`, the EC50 was 3870 nM. As to `Cc1ccc(-c2nn(CCC(=O)O)cc2/C=C\C(=O)c2ccc(Br)cc2)cc1`, the EC50 was 6540 nM. With `N=C1S/C(=C\c2ccco2)C(=O)N1c1nccs1`, the concentration giving a half-maximal response (EC50) is 2130 nM.

Turning to `COc1ccc(/C=N\NC(=O)c2cc(O)c(O)c(O)c2)cc1COc1ccc(C(=O)OCC(C)C)cc1`, the EC50 is 7280 nM.

As to `CCc1c(O)nc(SCC(=O)Nc2nc3ccccc3s2)n(C2CCCCC2)c1=O`, the EC50 was 8890 nM.

As for `CC(Oc1cccc(Cl)c1)C(=O)Nc1ccccc1N1CCCCC1` (stereo not drawn), the EC50 is 3040 nM. `Cc1ccccc1NC1=C/C(=N\S(=O)(=O)c2cccs2)c2ccccc2C1=O`: the EC50 was 1440 nM. Regarding `Nc1nc(NC(=O)/C=C/c2ccc(F)cc2)nn1-c1ccccc1`, the EC50 was 2620 nM. As to `C/C(=N\Nc1nc2ccc(Cl)cc2o1)c1ccccc1`, the EC50 was 2330 nM. For `Cc1ccc(/C=C2/Sc3ccc(C(=O)N4CCN(c5ccccn5)CC4)cc3NC2=O)cc1`, the EC50 is 1910 nM.

Regarding `Cc1n[nH]c(C)c1CCOc1ccc(C(C)C)cc1`, the EC50 is 11200 nM. `O=C1/C(=N\S(=O)(=O)c2cccs2)C([n+]2cccc(Cc3ccccc3)c2)=C([O-])c2ccccc21`: the EC50 is 1680 nM. In the case of `Cc1cccc(Cn2nc(C(C)(C)C)cc2C(=O)Nc2ccc(F)cc2)c1`, the EC50 is 3940 nM. Take `O=C(CSc1nnc(NC(=O)c2cccc(F)c2)s1)NCC1CCCO1` (stereo not drawn): the EC50 is > 15000 nM (inactive). With `CCOC(=O)c1cnc(-n2cc(C)cn2)nc1Nc1ccccc1OCC` the figure was 4180 nM. With `O=C(NCC1CCCO1)c1cc2c([nH]c3ccccc32)c(-c2cccc(Cl)c2)n1` (stereo not drawn) the figure was 4270 nM; with `O=C(Oc1cccc(/C=N/Nc2nc(Nc3ccccc3)nc(N3CCOCC3)n2)c1)c1ccco1`, 2030 nM. For `Cn1c(=O)c(C(=O)NNC(=O)c2ccccc2Br)c(O)c2ccccc21`, the EC50 was 7510 nM. As to `Cc1ccccc1OCC(=O)NNC(=S)NC(=O)c1ccco1`, the EC50 is 338 nM.

On to `CCOc1cc(N2CCOCC2)c(OCC)cc1NC(=O)C1=NN(c2cccc(C)c2)C(=O)CC1`, for which the EC50 is 13100 nM. Take `CC(C)Cn1c(=O)c(C(=O)N/N=C/c2cccc(F)c2)c(O)c2ccccc21`: the EC50 was 1830 nM. In the case of `CSc1nc(SCC(=O)O)c2sc3nc(-c4ccccc4)c4c(c3c2n1)CCC4`, the EC50 was 1140 nM. For the compound `Cc1c(C(=O)Nc2nonc2-c2ccc(F)cc2)oc2ccc(F)cc12`, the EC50 is 4060 nM.

As to `COc1ccc(N2CC(C(=O)Nc3nnc(SCc4cccnc4)s3)CC2=O)cc1` (stereo not drawn), the EC50 is > 15000 nM (inactive). On to `C/C(=N\NS(=O)(=O)c1ccc(C)cc1)c1ccc(C)o1`, for which the EC50 was > 15000 nM (inactive). For the compound `CSc1cccc(-c2nnc(NC(=O)c3cccc(N4C(=O)CCC4=O)c3)o2)c1`, the EC50 is 2040 nM. Turning to `Cc1ccc(-n2[nH]c(C)c(/C=N/NC(=O)c3cccc([N+](=O)[O-])c3)c2=O)cc1C`, the EC50 is 1150 nM.

For `O=C(Nc1nnc(C2=COCCO2)o1)c1cccc(C(F)(F)F)c1`, the EC50 is 1730 nM.

Turning to `CC(=O)Nc1ccc(NC(=O)CSc2nnc(NC(=O)c3ccc(Br)o3)s2)cc1`, the EC50 is 2680 nM. As to `Cc1cc2c(cc1C)-c1c(ssc1=Nc1ccc(S(N)(=O)=O)cc1)C(C)(C)N2`, the EC50 was 11700 nM. For `Cc1cccc(NC(=O)c2nc[nH]c2C(=O)N[C@@H](CCCCNC(=O)OC(C)(C)C)C(=O)OC(C)(C)C)c1`, the EC50 was 2830 nM. With `Cc1onc(-c2ccccc2)c1C(=O)NNC(=S)NC(=O)/C=C/c1cccs1` the figure was 839 nM. For the compound `Cc1coc2c1C(=O)C(=O)c1c-2ccc2c(C)cccc12`, the concentration for a half-maximal effect (EC50) is 2750 nM.

With `C/C(=N\Nc1cc(C)nc(-c2ccccc2O)n1)c1ccccc1O`, the EC50 is 5370 nM. For `Fc1ccc(Br)cc1C1C=C(c2ccc(Br)s2)Nc2ncnn21` (stereo not drawn), the EC50 is 6390 nM. Regarding `CC1(C)N=C(N)N=C(N)N1c1ccccc1`, the EC50 is 325 nM. As to `Cc1[nH]c(N=Nc2ccccc2)nc1N=Nc1ccccc1`, the EC50 was 2800 nM. Regarding `CC[C@H]1OC(=O)[C@H](C)[C@@H](O[C@H]2C[C@@](C)(OC)[C@@H](O)[C@H](C)O2)[C@H](C)[C@@H](O[C@@H]2O[C@H](C)C[C@H](N(C)C)[C@H]2O)[C@](C)(OC)C[C@@H](C)C(=O)[C@H](C)[C@@H](O)[C@]1(C)O`, the EC50 was below 60 nM. On to `O=C(CSc1nnc(CNC(=O)c2c(F)cccc2F)o1)NCc1ccccc1`, for which the EC50 is > 15000 nM (inactive).

In the case of `O=C(Nc1ccccc1N1CCCC1)c1ccc2c(c1)OCO2`, the EC50 was > 15000 nM (inactive).

Regarding `COc1cnc(-c2ccccn2)nc1Oc1ccccc1`, the EC50 is 2030 nM. For the compound `CCOC(=O)c1cc(-c2ccc(OC(F)F)cc2)nc2c1c(=O)[nH]c(=O)n2C`, the concentration for a half-maximal effect (EC50) is 392 nM. In the case of `Cc1ccc(Nc2c(-c3ccccn3)nc3cccc(C)n23)cc1`, the EC50 is 322 nM. Turning to `O=C1C=C(Nc2ccccc2O)c2ccccc2C1=O`, the EC50 is 3080 nM. In the case of `FC(F)(F)c1cc(-c2ccco2)nc(NCc2ccc(Cl)cc2)n1`, the EC50 was 7100 nM. With `Nc1nc2ccccc2n1/N=C/c1ccc(-c2ccccc2)o1` the figure was 1960 nM; with `CC(C)Oc1ccc(C(=O)Nc2nc3ccccc3[nH]2)cc1`, 1410 nM; with `CCCCC[n+]1ccn(C2=C([O-])c3ccccc3C(=O)/C2=N\S(=O)(=O)c2ccc(Br)cc2)c1`, 2870 nM. With `O=C(Nc1cccc(C(F)(F)F)c1)c1cc2c(=O)c3ccccc3oc2nc1C(F)(F)F` the figure was 7270 nM; with `COCCNC(=O)c1c(NC(=O)c2ccc(Br)o2)n(Cc2ccccc2)c2nc3ccccc3nc12`, 2440 nM; with `O=C(Nc1ncc(Cc2cccc(Cl)c2)s1)c1cccs1`, 3910 nM.

Consider `COc1cc(C(=O)Nc2ccc(-c3nc4cc(C)ccc4o3)c(O)c2)cc(OC)c1OC`, for which the EC50 was 3900 nM.

On to `C/C(N)=C(/C#N)C(=O)CSc1nc2scc(-c3ccc(F)cc3)c2c(=O)n1C`, for which the EC50 was 2100 nM. On to `N=C1/C(=C/c2cccs2)C(=O)N=C2SN=C(SCc3ccccc3)N12`, for which the EC50 is 1830 nM. As to `O=[N+]([O-])c1ccc(O)c(/C=N/Nc2nc3ccccc3[nH]2)c1`, the EC50 is 589 nM.

On to `CCCCCCCCCCCCCCCC(O)C(N)CO` (stereo not drawn), for which the EC50 was 2200 nM. In the case of `O=C(c1ccccc1)c1cc2ccc(O)cc2oc1=O`, the EC50 is 6030 nM. As for `O=C(NCc1ccccn1)Nc1ccc(F)c(Cl)c1`, the EC50 is > 15000 nM (inactive). On to `Cc1nn(-c2nc3ccccc3[nH]2)c(N)c1-c1ccc(Cl)cc1`, for which the EC50 is 1520 nM. The result for `Clc1cccc(Cl)c1C1Nc2cccc3cccc(c23)N1` reads 8810 nM; that for `Cc1cccc(NC(=O)c2cc3n(n2)C(C(F)(F)F)CC(c2ccc4c(c2)OCO4)N3)c1` (stereo not drawn), 7230 nM. With `O=C(NNC(=O)c1cc(-c2ccc(Cl)cc2Cl)nc2ccccc12)Nc1ccccc1` the figure was 3040 nM; with `COc1cc(C(=O)NS(=O)(=O)c2ccccc2C)ccc1Cc1cn(C)c2ccc(NC(=O)OC3CCCC3)cc12`, 2050 nM. On to `CCc1nc(SCC(=O)Nc2ccccc2OC)c2c(C)c(C)sc2n1`, for which the 50% effective concentration (EC50) was 6580 nM.

For orientation: EC50 means the concentration at which the effect is half-maximal.
